Data taken from publication PMC5218480 (PLoS ONE, 2017).

Tested on: MV-4-11 cells
Experiment: Gene expression microarray analysis (Affymetrix PrimeView) and GSEA
Type: cell-based, human
Set-up: RFU PODN (11730768_x_at) / Fold change /veh PODN (11730768_x_at) / RFU LINC00158 (11744669_a_at) / Fold change /veh LINC00158 (11744669_a_at) / RFU DUSP10 (11751237_a_at) / Fold change /veh DUSP10 (11751237_a_at) / RFU ID3 (11757404_x_at) / Fold change /veh ID3 (11757404_x_at) / RFU PLEKHG5 (11737974_s_at) / Fold change /veh PLEKHG5 (11737974_s_at) / RFU LRRC4B (11730491_at) / Fold change /veh LRRC4B (11730491_at) / RFU GIMAP4 (11747438_a_at) / Fold change /veh GIMAP4 (11747438_a_at) / RFU KRT8 (11758183_x_at) / Fold change /veh KRT8 (11758183_x_at) / RFU CNN1 (11734310_a_at) / Fold change /veh CNN1 (11734310_a_at) / RFU VPS37D (11726825_at) / Fold change /veh VPS37D (11726825_at) / RFU C10orf10 (11716522_x_at) / Fold change /veh C10orf10 (11716522_x_at) / RFU KIR2DL2 /// KIR2DL4 /// KIR2DL5A /// KIR2DL5B /// KIR2DS1 /// KIR2DS2 /// KIR2DS3 /// KIR2DS4 /// KIR3DL3 /// KIR3DL3 /// KIR3DS1 (11738374_at) / Fold change /veh KIR2DL2 /// KIR2DL4 /// KIR2DL5A /// KIR2DL5B /// KIR2DS1 /// KIR2DS2 /// KIR2DS3 /// KIR2DS4 /// KIR3DL3 /// KIR3DL3 /// KIR3DS1 (11738374_at) / RFU C1QL1 (11718748_at) / Fold change /veh C1QL1 (11718748_at) / RFU TMPRSS4 (11747572_a_at) / Fold change /veh TMPRSS4 (11747572_a_at) / RFU HAMP (11756126_x_at) / Fold change /veh HAMP (11756126_x_at) / RFU RNFT2 (11725882_a_at) / Fold change /veh RNFT2 (11725882_a_at) / RFU NR4A2 (11747474_a_at) / Fold change /veh NR4A2 (11747474_a_at) / RFU ABCC12 (11746883_a_at) / Fold change /veh ABCC12 (11746883_a_at) / RFU TMEM136 (11760407_x_at) / Fold change /veh TMEM136 (11760407_x_at) / RFU CLDN22 /// WWC2 (11732394_at) / Fold change /veh CLDN22 /// WWC2 (11732394_at) / RFU HLA-DPB1 (11760878_x_at) / Fold change /veh HLA-DPB1 (11760878_x_at) / RFU SPINT1 (11716480_a_at) / Fold change /veh SPINT1 (11716480_a_at) / RFU GAP43 (11754022_s_at) / Fold change /veh GAP43 (11754022_s_at) / RFU A4GNT (11735810_at) / Fold change /veh A4GNT (11735810_at) / RFU PRB3 (11715151_x_at) / Fold change /veh PRB3 (11715151_x_at) / RFU TUBB4B (11761932_at) / Fold change /veh TUBB4B (11761932_at) / RFU CAPN14 (11732068_a_at) / Fold change /veh CAPN14 (11732068_a_at) / RFU TMCC2 (11721928_a_at) / Fold change /veh TMCC2 (11721928_a_at) / RFU IRGQ (11745062_a_at) / Fold change /veh IRGQ (11745062_a_at) / RFU FAM174B (11720279_a_at) / Fold change /veh FAM174B (11720279_a_at) / RFU TMPRSS4 (11748680_a_at) / Fold change /veh TMPRSS4 (11748680_a_at) / RFU FAM212B (11763350_a_at) / Fold change /veh FAM212B (11763350_a_at) / RFU PLEKHG5 (11743358_a_at) / Fold change /veh PLEKHG5 (11743358_a_at) / RFU ZSCAN30 (11745921_a_at) / Fold change /veh ZSCAN30 (11745921_a_at) / RFU CMKLR1 (11741424_a_at) / Fold change /veh CMKLR1 (11741424_a_at) / RFU LOC101060620 /// MAPK8IP1 (11723275_at) / Fold change /veh LOC101060620 /// MAPK8IP1 (11723275_at) / RFU SPTSSB (11747773_x_at) / Fold change /veh SPTSSB (11747773_x_at) / RFU PRSS12 (11739890_at) / Fold change /veh PRSS12 (11739890_at) / RFU BIN1 (11741810_x_at) / Fold change /veh BIN1 (11741810_x_at) / RFU WNT11 (11732464_a_at) / Fold change /veh WNT11 (11732464_a_at) / RFU C10orf10 (11716521_a_at) / Fold change /veh C10orf10 (11716521_a_at) / RFU C5orf56 (11738089_at) / Fold change /veh C5orf56 (11738089_at) / RFU CYB561 (11721691_x_at) / Fold change /veh CYB561 (11721691_x_at) / RFU ANKRD19P (11752326_a_at) / Fold change /veh ANKRD19P (11752326_a_at) / RFU OR2T12 /// OR2T33 /// OR2T8 (11738714_s_at) / Fold change /veh OR2T12 /// OR2T33 /// OR2T8 (11738714_s_at) / RFU VCAN (11748164_a_at) / Fold change /veh VCAN (11748164_a_at) / RFU JSRP1 (11732532_at) / Fold change /veh JSRP1 (11732532_at) / RFU KRTAP10-11 (11738290_x_at) / Fold change /veh KRTAP10-11 (11738290_x_at) / RFU MYO3A (11730013_a_at) / Fold change /veh MYO3A (11730013_a_at) / RFU EBF3 (11725865_a_at) / Fold change /veh EBF3 (11725865_a_at) / RFU CAMK2N1 (11719241_x_at) / Fold change /veh CAMK2N1 (11719241_x_at) / RFU C5orf56 (11738088_a_at) / Fold change /veh C5orf56 (11738088_a_at) / RFU OLFML3 (11715873_a_at) / Fold change /veh OLFML3 (11715873_a_at) / RFU LOC100653217 /// NTM (11731650_a_at) / Fold change /veh LOC100653217 /// NTM (11731650_a_at) / RFU MAPK11 (11762145_a_at) / Fold change /veh MAPK11 (11762145_a_at) / RFU FIZ1 (11724087_x_at) / Fold change /veh FIZ1 (11724087_x_at) / RFU OASL (11726364_x_at) / Fold change /veh OASL (11726364_x_at) / RFU SOX15 (11748057_x_at) / Fold change /veh SOX15 (11748057_x_at) / RFU CD79A (11719716_a_at) / Fold change /veh CD79A (11719716_a_at) / RFU HIST1H1D (11736915_at) / Fold change /veh HIST1H1D (11736915_at) / RFU CASKIN2 (11723855_a_at) / Fold change /veh CASKIN2 (11723855_a_at) / RFU LOC730098 (11760151_x_at) / Fold change /veh LOC730098 (11760151_x_at) / RFU OR4N2 (11742367_at) / Fold change /veh OR4N2 (11742367_at) / RFU PRRT2 (11749266_a_at) / Fold change /veh PRRT2 (11749266_a_at) / RFU SNX32 (11753110_a_at) / Fold change /veh SNX32 (11753110_a_at) / RFU CDHR5 (11726645_a_at) / Fold change /veh CDHR5 (11726645_a_at) / RFU RCAN1 (11760418_a_at) / Fold change /veh RCAN1 (11760418_a_at) / RFU FAM167A (11723789_a_at) / Fold change /veh FAM167A (11723789_a_at) / RFU FAM26E (11764081_at) / Fold change /veh FAM26E (11764081_at) / RFU ISYNA1 (11749810_s_at) / Fold change /veh ISYNA1 (11749810_s_at) / RFU ACY1 (11761880_at) / Fold change /veh ACY1 (11761880_at) / RFU 11764098_at / Fold change /veh 11764098_at / RFU SAMD14 (11745864_x_at) / Fold change /veh SAMD14 (11745864_x_at) / RFU NPB (11741838_a_at) / Fold change /veh NPB (11741838_a_at) / RFU TMPRSS6 (11731388_a_at) / Fold change /veh TMPRSS6 (11731388_a_at) / RFU KRTAP10-2 (11738614_at) / Fold change /veh KRTAP10-2 (11738614_at) / RFU ARHGAP8 /// PRR5-ARHGAP8 (11727945_x_at) / Fold change /veh ARHGAP8 /// PRR5-ARHGAP8 (11727945_x_at) / RFU KRTAP5-7 /// NADSYN1 (11734609_at) / Fold change /veh KRTAP5-7 /// NADSYN1 (11734609_at) / RFU RASL12 (11751679_a_at) / Fold change /veh RASL12 (11751679_a_at) / RFU CDKN2B (11736163_a_at) / Fold change /veh CDKN2B (11736163_a_at) / RFU PRF1 (11729649_at) / Fold change /veh PRF1 (11729649_at) / RFU, ZNF638 /// ZNF638-IT1 / Fold change vs veh, ZNF638 /// ZNF638-IT1 / RFU, PANK3 / Fold change vs veh, PANK3 / RFU, SH3YL1 / Fold change vs veh, SH3YL1 / RFU, ZEB2 / Fold change vs veh, ZEB2 / RFU, NRIP1 / Fold change vs veh, NRIP1 / RFU, PTTG1IP / Fold change vs veh, PTTG1IP / RFU, CAPN2 / Fold change vs veh, CAPN2 / RFU, MED14 / Fold change vs veh, MED14 / RFU, SNORA58 / Fold change vs veh, SNORA58 / RFU, C1orf63 / Fold change vs veh, C1orf63 / RFU, LRRFIP1 / Fold change vs veh, LRRFIP1 / RFU, NDUFAF7 / Fold change vs veh, NDUFAF7 / RFU, SLC12A2 / Fold change vs veh, SLC12A2 / RFU, IBTK / Fold change vs veh, IBTK / RFU, ESF1 / Fold change vs veh, ESF1 / Fold change vs veh, TMEM50B / RFU, TAOK1 / Fold change vs veh, TAOK1 / RFU, ACBD3 / Fold change vs veh, ACBD3 / RFU, TMA16 / Fold change vs veh, TMA16 / RFU, RWDD3 / Fold change vs veh, RWDD3 / RFU, BCAT1 / Fold change vs veh, BCAT1 / RFU, EDEM3 / Fold change vs veh, EDEM3 / RFU, TMEM33 / Fold change vs veh, TMEM33 / RFU, WDR75 / Fold change vs veh, WDR75 / RFU, AHCTF1 / Fold change vs veh, AHCTF1 / RFU, TFRC / Fold change vs veh, TFRC / RFU, ZDHHC17 / Fold change vs veh, ZDHHC17 / RFU, NOM1 / Fold change vs veh, NOM1 / RFU, ARL8B / Fold change vs veh, ARL8B / RFU, ZBTB11 / Fold change vs veh, ZBTB11 / RFU, TAMM41 / Fold change vs veh, TAMM41 / RFU, KIAA1704 /// LOC100996395 / Fold change vs veh, KIAA1704 /// LOC100996395 / RFU, ING1 / Fold change vs veh, ING1 / RFU, TRMT61B / Fold change vs veh, TRMT61B / RFU, FUBP3 / Fold change vs veh, FUBP3 / RFU, TP53 / Fold change vs veh, TP53 / RFU, TNKS2 / Fold change vs veh, TNKS2 / RFU, ZFP14 / Fold change vs veh, ZFP14 / RFU, ACTR2 / Fold change vs veh, ACTR2 / RFU, PPP3R1 / Fold change vs veh, PPP3R1 / RFU, PIK3R1 / Fold change vs veh, PIK3R1 / RFU, HNRNPA1 / Fold change vs veh, HNRNPA1 / RFU, RNF170 / Fold change vs veh, RNF170 / RFU, ZNF28 / Fold change vs veh, ZNF28 / RFU, RNGTT / Fold change vs veh, RNGTT / RFU, OGT / Fold change vs veh, OGT / RFU, BRD1 / Fold change vs veh, BRD1 / RFU, MARS / Fold change vs veh, MARS / RFU, ZNF655 / Fold change vs veh, ZNF655 / RFU, FAHD1 / Fold change vs veh, FAHD1 / RFU, BDP1 / Fold change vs veh, BDP1 / RFU, LRRCC1 / Fold change vs veh, LRRCC1 / RFU, ARID1A / Fold change vs veh, ARID1A / RFU, ZNF146 / Fold change vs veh, ZNF146 / RFU, ZNF330 / Fold change vs veh, ZNF330 / RFU, GPN3 / Fold change vs veh, GPN3 / RFU, C9orf123 / Fold change vs veh, C9orf123 / RFU, N4BP2L2 / Fold change vs veh, N4BP2L2 / RFU, ARFIP1 / Fold change vs veh, ARFIP1 / RFU, FAM179B / Fold change vs veh, FAM179B / RFU, BCL10 / Fold change vs veh, BCL10 / RFU, UHRF1BP1L / Fold change vs veh, UHRF1BP1L / RFU, BET1 / Fold change vs veh, BET1 / RFU, CNOT2 / Fold change vs veh, CNOT2 / RFU, ZNF268 / Fold change vs veh, ZNF268 / Fold change vs veh, ZNF507 / RFU, DGCR2 / Fold change vs veh, DGCR2 / RFU, WDSUB1 / Fold change vs veh, WDSUB1 / Fold change vs veh, HSP90B1 /// MIR3652 / RFU, ADSS / Fold change vs veh, ADSS / RFU, GK / Fold change vs veh, GK / RFU, ZNF148 / Fold change vs veh, ZNF148 / RFU, TAF9 / Fold change vs veh, TAF9 / RFU, SLC1A5 / Fold change vs veh, SLC1A5 / RFU, SLMO2 / Fold change vs veh, SLMO2 / RFU, ABCC4 / Fold change vs veh, ABCC4 / RFU, LOC101060439 /// RAP1B / Fold change vs veh, LOC101060439 /// RAP1B / RFU, RFX7 / Fold change vs veh, RFX7 / RFU, GTPBP10 / Fold change vs veh, GTPBP10 / RFU, CNEP1R1 / Fold change vs veh, CNEP1R1 / RFU, BIVM-ERCC5 /// ERCC5 / Fold change vs veh, BIVM-ERCC5 /// ERCC5 / RFU, ILF3 / Fold change vs veh, ILF3 / RFU 11762660_at / Fold change /veh 11762660_at / RFU VCAN (11757783_s_at) / Fold change /veh VCAN (11757783_s_at) / RFU DDX43 (11728927_at) / Fold change /veh DDX43 (11728927_at) / RFU KRT8 (11758188_x_at) / Fold change /veh KRT8 (11758188_x_at) / RFU NKD1 (11759106_at) / Fold change /veh NKD1 (11759106_at) / RFU SRD5A1 (11742802_a_at) / Fold change /veh SRD5A1 (11742802_a_at) / RFU TPSAB1 /// TPSB2 (11721975_s_at) / Fold change /veh TPSAB1 /// TPSB2 (11721975_s_at) / RFU GSTM3 (11746129_a_at) / Fold change /veh GSTM3 (11746129_a_at) / RFU IL23R (11737362_x_at) / Fold change /veh IL23R (11737362_x_at) / RFU TMEM51 (11727254_a_at) / Fold change /veh TMEM51 (11727254_a_at) / RFU PIWIL2 (11732686_x_at) / Fold change /veh PIWIL2 (11732686_x_at) / RFU ORM1 (11744905_x_at) / Fold change /veh ORM1 (11744905_x_at) / RFU CCDC152 (11743942_at) / Fold change /veh CCDC152 (11743942_at) / RFU ECM1 (11717891_a_at) / Fold change /veh ECM1 (11717891_a_at) / RFU IL23R (11748794_a_at) / Fold change /veh IL23R (11748794_a_at) / RFU TNFAIP8L3 (11732012_x_at) / Fold change /veh TNFAIP8L3 (11732012_x_at) / RFU MBOAT4 (11741988_at) / Fold change /veh MBOAT4 (11741988_at) / RFU 11764193_at / Fold change /veh 11764193_at / RFU TMEM53 (11763286_at) / Fold change /veh TMEM53 (11763286_at) / RFU MAGEB2 (11727129_at) / Fold change /veh MAGEB2 (11727129_at) / RFU TMEM200A (11744735_a_at) / Fold change /veh TMEM200A (11744735_a_at) / RFU CCDC152 (11751479_a_at) / Fold change /veh CCDC152 (11751479_a_at) / RFU FAM211A (11726209_a_at) / Fold change /veh FAM211A (11726209_a_at) / RFU RGS16 (11746705_a_at) / Fold change /veh RGS16 (11746705_a_at) / RFU VCAN (11755009_s_at) / Fold change /veh VCAN (11755009_s_at) / RFU RHOB (11743442_s_at) / Fold change /veh RHOB (11743442_s_at) / RFU RGS16 (11720943_a_at) / Fold change /veh RGS16 (11720943_a_at) / RFU RGS16 (11720944_at) / Fold change /veh RGS16 (11720944_at) / RFU, VPS4B / Fold change vs veh, VPS4B / RFU, CREB1 / Fold change vs veh, CREB1 / RFU, DNAJC13 / Fold change vs veh, DNAJC13 / RFU, GNAQ / Fold change vs veh, GNAQ / RFU, CDK5R1 / Fold change vs veh, CDK5R1 / RFU, ZRANB3 / Fold change vs veh, ZRANB3 / RFU, CUL4A / Fold change vs veh, CUL4A / RFU, CCNY / Fold change vs veh, CCNY / RFU, UFL1 / Fold change vs veh, UFL1 / RFU, COG3 / Fold change vs veh, COG3 / RFU, DIAPH2 / Fold change vs veh, DIAPH2 / RFU, SKA2 / Fold change vs veh, SKA2 / RFU, AFF3 / Fold change vs veh, AFF3 / RFU, LMF1 / Fold change vs veh, LMF1 / RFU, IPO11 / Fold change vs veh, IPO11 / RFU, DFFB / Fold change vs veh, DFFB / RFU, FOXP1 / Fold change vs veh, FOXP1 / RFU, CARD8 / Fold change vs veh, CARD8 / RFU, STRN3 / Fold change vs veh, STRN3 / RFU, ADK / Fold change vs veh, ADK / RFU, RASSF2 / Fold change vs veh, RASSF2 / RFU, WIPF1 / Fold change vs veh, WIPF1 / RFU, LARP1B / Fold change vs veh, LARP1B / RFU, RASA1 / Fold change vs veh, RASA1 / RFU, RB1 / Fold change vs veh, RB1 / RFU, PPFIA1 / Fold change vs veh, PPFIA1 / RFU, MAT2A / Fold change vs veh, MAT2A / RFU, CCT5 / Fold change vs veh, CCT5 / RFU, WDR92 / Fold change vs veh, WDR92 / RFU, CUX1 / Fold change vs veh, CUX1 / RFU, TTC7A / Fold change vs veh, TTC7A / RFU, TMEM135 / Fold change vs veh, TMEM135 / RFU, DEPTOR / Fold change vs veh, DEPTOR / RFU, CPM / Fold change vs veh, CPM / RFU, DNAJB6 / Fold change vs veh, DNAJB6 / RFU, CACNA2D3 / Fold change vs veh, CACNA2D3 / RFU, DTX4 / Fold change vs veh, DTX4 / RFU, TFCP2 / Fold change vs veh, TFCP2 / RFU, GMCL1 /// GMCL1P1 / Fold change vs veh, GMCL1 /// GMCL1P1 / RFU, AEBP2 / Fold change vs veh, AEBP2 / RFU, SNHG1 /// SNORD22 /// SNORD25 /// SNORD26 /// SNORD27 /// SNORD28 /// SNORD29 /// SNORD31 / Fold change vs veh, SNHG1 /// SNORD22 /// SNORD25 /// SNORD26 /// SNORD27 /// SNORD28 /// SNORD29 /// SNORD31 / Fold change (Aza/veh), C12orf56 (ProbeSet 11735607_a_at) / Fold change (ACY-1035/veh), C12orf56 (ProbeSet 11735607_a_at) / Fold change (Aza/veh), FGFR1OP (ProbeSet 11751329_s_at) / Fold change (ACY-1035/veh), FGFR1OP (ProbeSet 11751329_s_at) / Fold change (Aza/veh), VPS36 (ProbeSet 11739960_a_at) / Fold change (ACY-1035/veh), VPS36 (ProbeSet 11739960_a_at) / RFU SYPL1 (11715823_x_at) / Fold change /veh SYPL1 (11715823_x_at) / RFU IGFBP7 (11715501_s_at) / Fold change /veh IGFBP7 (11715501_s_at) / RFU REEP3 (11722064_at) / Fold change /veh REEP3 (11722064_at) / RFU IGLL1 (11728026_x_at) / Fold change /veh IGLL1 (11728026_x_at): dose or concentration left out as unconfirmed
Conditions: MV-4-11 cells, 48 hours

Nc1ncn([C@@H]2O[C@H](CO)[C@@H](O)[C@H]2O)c(=O)n1 [azacitidine]
Fold change /veh PRSS12 (11739890_at): 0.94
